Measurements from PMC7930720, “Functional Expression of the Human Glucose Transporters GLUT2 and GLUT3 in Yeast Offers Novel Screening Systems for GLUT-Targeting Drugs” (Frontiers in Molecular Biosciences, 2021).

How the values were obtained:
Assay type in all cases: cell-based
GLUT2 [1] = target: T1, GLUT2 (Homo sapiens, UniProt P11168, A89S/DEL55-88/Q455R); assay: inhibition of […]-glucose ([…]) uptake in hxt0 EBY.S7 yeast expressing the transporter; growth assay
T1 construct: gene SLC2A2
T1 sequence (P11168 with tags, fused parts or gaps DEL55-88/A89S/Q455R): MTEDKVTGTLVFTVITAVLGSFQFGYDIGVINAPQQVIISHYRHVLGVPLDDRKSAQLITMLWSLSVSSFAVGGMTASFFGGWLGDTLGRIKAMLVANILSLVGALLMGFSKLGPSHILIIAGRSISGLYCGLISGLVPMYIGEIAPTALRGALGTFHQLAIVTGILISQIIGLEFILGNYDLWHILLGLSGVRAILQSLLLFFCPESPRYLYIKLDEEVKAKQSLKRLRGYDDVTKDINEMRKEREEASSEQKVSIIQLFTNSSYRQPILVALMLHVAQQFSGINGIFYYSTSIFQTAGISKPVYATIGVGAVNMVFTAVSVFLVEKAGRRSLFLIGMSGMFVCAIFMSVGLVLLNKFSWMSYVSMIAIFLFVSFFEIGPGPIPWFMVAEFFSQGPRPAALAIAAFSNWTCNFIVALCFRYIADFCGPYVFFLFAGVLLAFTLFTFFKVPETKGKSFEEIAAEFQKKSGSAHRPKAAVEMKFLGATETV

GLUT3 [2] = target: T2, GLUT3 (Homo sapiens, UniProt P11169, S66Y); assay: as above
T2 construct: gene SLC2A3; GLUT3S66Y
T2 sequence (P11169 1-496 S66Y): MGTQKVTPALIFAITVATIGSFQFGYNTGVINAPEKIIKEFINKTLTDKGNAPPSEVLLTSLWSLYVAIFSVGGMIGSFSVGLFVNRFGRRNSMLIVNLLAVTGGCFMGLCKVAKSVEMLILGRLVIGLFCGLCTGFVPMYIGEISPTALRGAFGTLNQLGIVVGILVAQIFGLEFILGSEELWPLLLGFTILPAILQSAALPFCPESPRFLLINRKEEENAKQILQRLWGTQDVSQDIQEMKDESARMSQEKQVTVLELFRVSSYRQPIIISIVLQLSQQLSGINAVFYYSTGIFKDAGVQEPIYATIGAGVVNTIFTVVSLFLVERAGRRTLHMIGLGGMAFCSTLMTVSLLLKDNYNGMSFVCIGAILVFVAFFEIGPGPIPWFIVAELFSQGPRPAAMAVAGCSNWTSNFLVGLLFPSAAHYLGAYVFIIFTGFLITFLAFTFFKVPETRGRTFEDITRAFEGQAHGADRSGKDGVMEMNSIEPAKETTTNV

GLUT2 [3] = target: T1, GLUT2; assay: inhibition of […]-glucose ([…]) uptake in hxt0 EBY.S7 yeast expressing the transporter
GLUT3 [4] = target: T2, GLUT3; assay: as above

Question: For `O=C(CCc1ccc(O)cc1)c1c(O)cc(O)cc1O` [phloretin], which IC50 (GLUT2 [1]) is on record?
Answer: 1.07 ± 0.11 µM

Question: And the IC50 (GLUT3 [2])?
Answer: 22.4 ± 1.8 µM

Question: Which IC50 (GLUT2 [3]) does the source give for `O=c1c(O)c(-c2ccc(O)c(O)c2)oc2cc(O)cc(O)c12` [quercetin] here?
Answer: 3.22 ± 0.45 µM

Question: What about the IC50 (GLUT3 [4]) of the same compound?
Answer: 11.6 ± 0.6 µM
